# Activity calls are given as the source filed them. The rule behind the calls is not given here.
# How the values were obtained:
# 786-0 = test: Antiproliferative activity against human 786-0 cells assessed as growth inhibition after 48 hrs by sulforhodamine B assay; type: functional; conditions: 786-0, 48 h
# UACC-257 = test: Antiproliferative activity against human UACC257 cells assessed as growth inhibition after 48 hrs by sulforhodamine B assay; type: functional; conditions: UACC-257, 48 h
# TK-10 = test: Antiproliferative activity against human TK10 cells assessed as growth inhibition after 48 hrs by sulforhodamine B assay; type: functional; conditions: TK-10, 48 h
# WI-38 = test: Cytotoxicity activity against human WI38 cells assessed as reduction in cell viability measured after 48 hrs by MTT assay; type: cell-based; conditions: WI-38, 48 h
# Hs-578T = test: Antiproliferative activity against human Hs578T cells assessed as growth inhibition after 48 hrs by sulforhodamine B assay; type: functional
# SK-MEL-5 = test: Antiproliferative activity against human SK-MEL-5 cells assessed as growth inhibition after 48 hrs by sulforhodamine B assay; type: functional; conditions: SK-MEL-5, 48 h
# A549 = test: Antiproliferative activity against human A549/ATCC cells assessed as growth inhibition after 48 hrs by sulforhodamine B assay; type: functional; conditions: A549, 48 h
# MCF7 = test: Antiproliferative activity against human MCF7 cells assessed as growth inhibition after 48 hrs by sulforhodamine B assay; type: functional; conditions: MCF7, 48 h
# BT-549 = test: Antiproliferative activity against human BT549 cells assessed as growth inhibition after 48 hrs by sulforhodamine B assay; type: functional; conditions: BT-549, 48 h
# [1] = Haemolytic activity in human erythrocytes assessed as induction of hemolysis at 10 mM after 30 mins relative to H202; type: cell-based, Erythrocyte; conditions: read-out: Activity
# SF-539 = test: Antiproliferative activity against human SF539 cells assessed as growth inhibition after 48 hrs by sulforhodamine B assay; type: functional; conditions: SF-539, 48 h
# SNB-75 = test: Antiproliferative activity against human SNB75 cells assessed as growth inhibition after 48 hrs by sulforhodamine B assay; type: functional; conditions: SNB-75, 48 h
# Erythrocyte [2] = test: Haemolytic activity in human erythrocytes assessed as induction of hemolysis at 0.625 mM after 30 mins relative to H202; type: cell-based; conditions: erythrocyte, 0.5 h, 625 µM
# COLO 205 = test: Antiproliferative activity against human COLO205 cells assessed as growth inhibition after 48 hrs by sulforhodamine B assay; type: functional; conditions: COLO 205, 48 h
# CCRF-CEM = test: Antiproliferative activity against human CCRF-CEM cells assessed as growth inhibition after 48 hrs by sulforhodamine B assay; type: functional
# MDA-MB-435 = test: Antiproliferative activity against human MDA-MB-435 cells assessed as growth inhibition after 48 hrs by sulforhodamine B assay; type: functional; conditions: MDA-MB-435, 48 h
# K562 = test: Antiproliferative activity against human K562 cells assessed as growth inhibition after 48 hrs by sulforhodamine B assay; type: functional, cell-based; conditions: K562, 48 h, read-out: IC50
# SK-MEL-28 = test: Antiproliferative activity against human SK-MEL-28 cells assessed as growth inhibition after 48 hrs by sulforhodamine B assay; type: functional; conditions: SK-MEL-28, 48 h
# IGROV-1 = test: Antiproliferative activity against human IGROV1 cells assessed as growth inhibition after 48 hrs by sulforhodamine B assay; type: functional; conditions: IGROV-1, 48 h
# NCI-H522 = test: Antiproliferative activity against human NCI-H522 cells assessed as growth inhibition after 48 hrs by sulforhodamine B assay; type: functional; conditions: NCI-H522, 48 h
# NCI/ADR-RES = test: Antiproliferative activity against human NCI-ADR-RES cells assessed as growth inhibition after 48 hrs by sulforhodamine B assay; type: functional
# MDA-MB-231 = test: Antiproliferative activity against human MDA-MB-231/ATCC cells assessed as growth inhibition after 48 hrs by sulforhodamine B assay; type: functional; conditions: MDA-MB-231, 48 h
# Erythrocyte [3] = test: Haemolytic activity in human erythrocytes assessed as induction of hemolysis at 1.25 mM after 30 mins relative to H202; type: cell-based; conditions: erythrocyte, 0.5 h, 1250 µM
# MOLT-4 = test: Antiproliferative activity against human MOLT4 cells assessed as growth inhibition after 48 hrs by sulforhodamine B assay; type: functional; conditions: MOLT-4, 48 h
# NCI-H322M = test: Antiproliferative activity against human NCI-H322M cells assessed as growth inhibition after 48 hrs by sulforhodamine B assay; type: functional
# OVCAR-4 = test: Antiproliferative activity against human OVCAR4 cells assessed as growth inhibition after 48 hrs by sulforhodamine B assay; type: functional; conditions: OVCAR-4, 48 h
# NCI-H226 = test: Antiproliferative activity against human NCI-H226 cells assessed as growth inhibition after 48 hrs by sulforhodamine B assay; type: functional; conditions: NCI-H226, 48 h
# RPMI-8226 = test: Antiproliferative activity against human RPMI8226 cells assessed as growth inhibition after 48 hrs by sulforhodamine B assay; type: functional; conditions: RPMI-8226, 48 h
# U-251 = test: Antiproliferative activity against human U251 cells assessed as growth inhibition after 48 hrs by sulforhodamine B assay; type: functional; conditions: U-251, 48 h
# HCT-116 [4] = test: […] in CDK1 mRNA expression in human HCT116 cells at 100 nM after 6 hrs hrs by SYBR green dye-based qRT-PCR analysis relative to control; type: functional
# SW-620 = test: Antiproliferative activity against human SW620 cells assessed as growth inhibition after 48 hrs by sulforhodamine B assay; type: functional; conditions: SW-620, 48 h
# [5] = Antioxidant activity assessed as ABTS radical scavenging activity by spectrophotometric method relative to ascorbic acid; type: functional
# SK-MEL-2 = test: Antiproliferative activity against human SK-MEL-2 cells assessed as growth inhibition after 48 hrs by sulforhodamine B assay; type: functional; conditions: SK-MEL-2, 48 h
# [6] = Haemolytic activity in human erythrocytes assessed as induction of hemolysis at 5 mM after 30 mins relative to H202; type: cell-based, Erythrocyte; conditions: read-out: Activity
# [7] = test system: Panel NCI-60 (60 carcinoma cell lines); test: Antiproliferative activity against human NCI60 cells assessed as growth inhibition at 10 uM after 48 hrs by sulforhodamine B assay; type: functional; conditions: read-out: GI
# Malme-3M = test: Antiproliferative activity against human MALME-3M cells assessed as growth inhibition after 48 hrs by sulforhodamine B assay; type: functional
# MDA-MB-468 = test: Antiproliferative activity against human MDA-MB-468 cells assessed as growth inhibition after 48 hrs by sulforhodamine B assay; type: functional; conditions: MDA-MB-468, 48 h
# [8] = Pro-oxidant activity assessed as increase in bleomycin-Fe2+ induced calf thymus DNA damage at 2 mM after 1 hr by thiobarbituric acid based absorbance analysis
# HCC 2998 = test: Antiproliferative activity against human HCC2998 cells assessed as growth inhibition after 48 hrs by sulforhodamine B assay; type: functional; conditions: HCC 2998, 48 h
# HCT-116 [9] = test: Antiproliferative activity against human HCT116 cells assessed as growth inhibition after 48 hrs by sulforhodamine B assay; type: functional; conditions: HCT-116, 48 h
# [10] = Antioxidant activity assessed as DPPH radical scavenging activity incubated in dark for 30 mins by spectrophotometric method relative to control; type: functional; design: concentration or dose not given beside the values
# SNB-19 = test: Antiproliferative activity against human SNB19 cells assessed as growth inhibition after 48 hrs by sulforhodamine B assay; type: functional; conditions: SNB-19, 48 h
smiles,measurement,setting,value
COc1ccc(-c2ccc(-c3ccc(C(=N)N)o3)o2)cc1,GI50,786-0,2220 nM
same,GI50,UACC-257,11100 nM
same,GI50,TK-10,7970 nM
same,IC50,WI-38,72900 nM
same,GI50,Hs-578T,4330 nM
same,GI50,SK-MEL-5,2800 nM
same,GI50,A549,1490 nM
same,GI50,MCF7,330 nM
same,GI50,BT-549,4550 nM
same,"hemolysis at 0.5 h, 10000 µM",[1],71.7%
same,GI50,SF-539,1890 nM
same,GI50,SNB-75,1470 nM
same,Activity,Erythrocyte [2],Non-Toxic
same,GI50,COLO 205,1250 nM
same,GI50,CCRF-CEM,1840 nM
same,GI50,MDA-MB-435,290 nM
same,IC50,K562,490 nM
same,GI50,SK-MEL-28,1670 nM
same,GI50,IGROV-1,1730 nM
same,GI50,NCI-H522,1090 nM
same,GI50,NCI/ADR-RES,1880 nM
same,GI50,MDA-MB-231,1900 nM
same,Activity,Erythrocyte [3],Non-Toxic
same,GI50,MOLT-4,1200 nM
same,GI50,NCI-H322M,2260 nM
same,GI50,OVCAR-4,2220 nM
same,GI50,NCI-H226,22000 nM
same,GI50,RPMI-8226,2680 nM
same,GI50,U-251,1740 nM
same,fold change (FC),HCT-116 [4],1.02
same,GI50,SW-620,530 nM
same,fold change (FC),[5],0.7
same,GI50,SK-MEL-2,5710 nM
same,"hemolysis at 0.5 h, 5000 µM",[6],36.3%
same,inhibition of growth at 10 µM,[7],86.4%
same,GI50,Malme-3M,3970 nM
same,GI50,MDA-MB-468,860 nM
same,Activity,[8],Active
same,GI50,HCC 2998,1580 nM
same,GI50,HCT-116 [9],1070 nM
same,inhibition,[10],61.7%
same,GI50,SNB-19,1990 nM
N=C(N)c1ccc(-c2ccc(-c3cc(Cl)cc(Cl)c3)s2)s1,GI50,786-0,1980 nM
same,GI50,UACC-257,2050 nM
same,GI50,TK-10,1850 nM
same,IC50,WI-38,98800 nM
same,GI50,Hs-578T,2150 nM
same,GI50,SK-MEL-5,1900 nM
same,GI50,A549,2070 nM
same,GI50,MCF7,1340 nM
same,GI50,BT-549,4370 nM
same,"hemolysis at 0.5 h, 10000 µM",[1],17%
same,GI50,SF-539,1700 nM
same,GI50,SNB-75,1380 nM
same,Activity,Erythrocyte [2],Non-Toxic
same,GI50,COLO 205,1540 nM
same,GI50,CCRF-CEM,2140 nM
same,GI50,MDA-MB-435,1670 nM
same,IC50,K562,1290 nM
same,GI50,SK-MEL-28,1830 nM
same,GI50,IGROV-1,1970 nM
same,GI50,NCI-H522,1910 nM
same,GI50,NCI/ADR-RES,2060 nM
same,GI50,MDA-MB-231,1870 nM
same,Activity,Erythrocyte [3],Non-Toxic
same,GI50,MOLT-4,1710 nM
same,GI50,NCI-H322M,1660 nM
same,GI50,OVCAR-4,1910 nM
same,GI50,NCI-H226,30800 nM
same,GI50,RPMI-8226,2330 nM
same,GI50,U-251,1860 nM
same,fold change (FC),HCT-116 [4],0.21
same,GI50,SW-620,1920 nM
same,fold change (FC),[5],0.4
same,GI50,SK-MEL-2,2240 nM
same,"hemolysis at 0.5 h, 5000 µM",[6],6.7%
same,inhibition of growth at 10 µM,[7],-28.6%
same,GI50,Malme-3M,1850 nM
same,GI50,MDA-MB-468,2060 nM
same,Activity,[8],Active
same,GI50,HCC 2998,1750 nM
same,GI50,HCT-116 [9],1610 nM
same,inhibition,[10],27.2%
same,GI50,SNB-19,2110 nM
COc1cc(-c2ccc(-c3ccc(C(=N)N)s3)s2)cc(OC)c1OC,GI50,786-0,1730 nM
same,GI50,UACC-257,2220 nM
same,GI50,TK-10,2700 nM
same,IC50,WI-38,65700 nM
same,GI50,SK-MEL-5,1520 nM
same,GI50,A549,2140 nM
same,GI50,MCF7,1660 nM
same,GI50,BT-549,1770 nM
same,"hemolysis at 0.5 h, 10000 µM",[1],79.7%
same,GI50,SF-539,1580 nM
same,GI50,SNB-75,1500 nM
same,Activity,Erythrocyte [2],Non-Toxic
same,GI50,COLO 205,2130 nM
same,GI50,CCRF-CEM,3420 nM
same,GI50,MDA-MB-435,1640 nM
same,IC50,K562,1110 nM
same,GI50,SK-MEL-28,1580 nM
same,GI50,IGROV-1,1980 nM
same,GI50,NCI-H522,1940 nM
same,GI50,NCI/ADR-RES,3440 nM
same,GI50,MDA-MB-231,1880 nM
same,Activity,Erythrocyte [3],Non-Toxic
same,GI50,MOLT-4,2400 nM
same,GI50,NCI-H322M,2380 nM
same,GI50,OVCAR-4,1820 nM
same,GI50,NCI-H226,1880 nM
same,GI50,RPMI-8226,2460 nM
same,GI50,U-251,1990 nM
same,fold change (FC),HCT-116 [4],0.81
same,GI50,SW-620,1910 nM
same,fold change (FC),[5],0.8
same,"hemolysis at 0.5 h, 5000 µM",[6],38.7%
same,inhibition of growth at 10 µM,[7],73.5%
same,GI50,Malme-3M,1740 nM
same,GI50,MDA-MB-468,1820 nM
same,Activity,[8],Active
same,GI50,HCC 2998,1760 nM
same,GI50,HCT-116 [9],1730 nM
same,inhibition,[10],64.1%
same,GI50,SNB-19,2160 nM

# Source: ChEMBL document CHEMBL4346657, “Anticancer activity, dual prooxidant/antioxidant effect and apoptosis induction profile of new bichalcophene-5-carboxamidines” (Eur J Med Chem, 2019)
